SMILES strings stand for the structures.

The compound `COC(=O)c1cccc(-c2nc(COc3ccc(CO)cc3)c(C)o2)c1` showed a melting point of 105 to 106 °C.

Regarding `CC(=O)OC1CSC(Oc2cc(-c3ccnc(F)c3)cnc2F)C(OC(C)=O)C1OC(C)=O` (stereo not drawn), the melting point fell in the range of 142 to 144 °C.

Compound `Cc1ncc(C=S)c(Nc2ccccc2)n1` returned a melting point of 106 °C. For the compound `N#Cc1c(N2CCN(C(=O)c3ccco3)CC2)c2cc(F)ccc2n(Cc2ccccc2)c1=O`, the melting point turned out to be 209 °C. For the compound `CCC(CC)c1nn(-c2ccc(C(F)(F)F)nn2)cc1CCCOc1c(CC(=O)O)cccc1OC`, the melting point was in the range of 81 to 82 °C.

The compound `CCOC(C(=O)O)c1ccc2c(c1)C(C)(C)CCC2(C)C` (racemic) gave a melting point of 106 to 109 °C.

For `COc1cc(OC)cc(N2Cc3cnc(S(C)=O)nc3NC2=O)c1` (stereo not drawn), the melting point was 220 to 222 °C. The value for `Cc1nn(CCC(C)C)c(C)c1CC(=O)O` was 135 to 136 °C. Regarding `CC(=O)NC1Cc2ccc(Cl)cc2C1` (stereo not drawn), the melting point was in the range of 117 to 119 °C. `N#CC1(c2ccc(OC(F)F)c(OCC3CC3)c2)CCC(=C2SCCCS2)CC1` (stereo not drawn) gave a melting point of 84 to 85 °C.

Turning to `CC(C)c1nn(-c2ncc(C(F)(F)F)cn2)cc1CCCO`, the melting point is 98 to 99 °C.

In the case of `N#Cc1cc2c(Oc3ccc(Cl)cc3)cncc2s1`, the melting point lay within 140 to 142 °C.

On to `Nc1nc2ccccc2c2c1ncn2CCCCNC(=O)c1ccnc2ccccc12`, for which the melting point fell in the range of 214 to 215 °C.

On to `CCCCCCCCC(Cc1cccnc1)(C(=O)O)S(=O)(=O)c1ccc(OC)cc1` (stereo not drawn), for which the melting point was determined as 159 °C. In turn, `CCOC(=O)C=Cc1ccc(CCNS(=O)(=O)c2ccc(Cl)cc2)cc1` yielded a melting point of 97 to 98 °C. The compound `NC(=O)N1CC(Oc2ccc(Cl)c(Cl)c2)C1` returned a melting point of 179 to 184 °C.

As for `CN(C)C1CCC(O)(c2ccccc2Cc2ccccc2)CC1` (stereo not drawn), the melting point is 140 to 141 °C.

Compound `COc1cc2c(cc1C(F)(F)F)N(C(=O)Nc1ccc3c(ccn3Cc3ccncc3)c1)CC2` displayed a melting point of 215 to 218 °C.

Consider `CCN(CC)C1CCN(c2ccc(C(C)=O)cc2)CC1`, for which the melting point is 125 to 127 °C. In turn, `O=C(NO)c1ccc(C(=O)NOCc2ccc3ccccc3c2)cc1` had a melting point of 220 to 222 °C.

Regarding `COc1cc(CCC#N)c(Br)cc1OCc1ccccc1`, the melting point was in the range of 52 to 53 °C.

For `CCOC(=O)C(C)(C)n1c(=O)[nH]c2c(OC)cccc2c1=O`, the melting point is 144 to 145 °C.

`Fc1ccc(/C=C/c2nc(COc3ccc(CCCCn4ccnn4)cc3)co2)cc1` displayed a melting point of 124 to 125 °C. The compound `CNC(C)=Nc1ccc(-c2c[nH]cn2)cc1` displayed a melting point of 226 to 227 °C. `CC(C)(C)CC(C)(C)c1ccc(O)c(-n2nc3ccc(C(F)(F)F)cc3n2)c1` returned a melting point of 80 to 81 °C.

As to `CCOC(=O)c1cn2c3c(cc(I)cc3c1=O)OC(c1ccccn1)C2` (stereo not drawn), the melting point was in the range of 224 to 225 °C. `CCOC(=O)C1=CC(OC)(OC)CCC1S(=O)(=O)Nc1ccc(F)cc1Cl` (stereo not drawn) gave a melting point of 97 to 98 °C. The value for `CCN1C(=O)N(c2cc(OC)cc(OC)c2Cl)Cc2cnc(SC)nc21` was 189 to 191 °C; that for `CC(=O)Nc1nc(CCc2ccc(N)cc2)c(C(=O)NCc2ccc(S(C)(=O)=O)cc2)s1` was 78 to 80 °C.

Turning to `Cc1ccc(C)n1-c1ccc2c(c1)ncn2-c1cccc(-n2ccnc2)c1`, the melting point lay in the range of 141 to 142 °C. Take `OCCCNC(Cn1ccnc1)c1ccc(Cl)cc1Cl` (stereo not drawn): the melting point was 77 to 79 °C. Consider `O=C(Nc1ccc(Cl)cc1F)c1cc(-c2ccc(F)cc2F)ccc1O`, for which the melting point was 245 to 246 °C. For `Cc1cc(-c2cc(C(F)(F)F)n3ncc(C(=O)Nc4cccc(S(=O)(=O)N5CCCC5)c4)c3n2)ccc1Cl`, the melting point worked out at 230 °C. The compound `Nc1cc2c(Nc3ccc(Cl)c(Cl)c3)ncnc2cn1` had a melting point of 277 to 280 °C. Compound `CN(CCc1ccccc1)C(=O)Cn1cc(C=C(C(=O)O)C(C)(C)C)c2cc([N+](=O)[O-])ccc21` showed a melting point of 140 to 143 °C.

`CC(C)C(C(=O)O)c1ccc(N=[N+]=[N-])cc1` (stereo not drawn) gave a melting point of 95 to 97 °C.

As to `O=C(/C=C/c1cccc(S(=O)(=O)N2CCN(Cc3ccccc3)CC2)c1)NO`, the melting point is 185 °C.

Turning to `COc1ccc(-c2nc(S(=O)c3ccncc3)[nH]c2-c2ccc(OC)cc2)cc1` (stereo not drawn), the melting point was in the range of 170 to 171 °C. Compound `O=C(O)CNC(=O)C(NC(=O)c1ccccc1)SC(=O)c1ccccc1` (stereo not drawn) gave a melting point of 162 to 164 °C. For `CCCCCCC(=O)C=Cc1ccc(OC(C)=O)c(OC(C)=O)c1`, the melting point is 71 to 72 °C.

`COc1nc(-c2cccc(Cl)c2)c2cc(C(=O)N(C)OC)ccc2n1` showed a melting point of 118 °C. Turning to `CC1=NSc2c(F)c(F)c(F)c(F)c2N1Cc1ccc(-c2ccccc2C(=O)OC(C)(C)C)cc1`, the melting point was 177 to 179 °C.

Regarding `CS(=O)(=O)c1ccc(C(CC2CCOCC2)c2ccc(-c3ccccn3)[nH]2)cn1` (stereo not drawn), the melting point is 89 to 90 °C.

For the compound `CC(C)c1csc(/C=C/c2cccc(OCCC(C)(C)C(=O)O)c2)n1`, the melting point fell in the range of 112 to 113 °C.

The compound `Cn1c(=O)cc(CCCl)c2cc(Cl)ccc21` gave a melting point of 120 to 122 °C. `CCCN1C(=O)c2cccnc2NS1(=O)=O` gave a melting point of 208 to 210 °C. The value for `CCc1cc(C(=O)c2ccccc2Cl)c(-n2c(Cl)nnc2CNC(=O)c2cc3ccccc3[nH]2)s1` was 254 to 256 °C; that for `CC(C)CCc1cc(C(O)=S)cc(N)c1C(=O)c1ccccc1` was 141 to 142 °C.

With `CCCc1c(CSc2nccc(OCC(=O)O)n2)ccc(C(C)=O)c1O`, the melting point lay in the range of 174 to 178 °C. Compound `CC(C)(C)OC(=O)N1CCC(c2ccc3nc(-c4ccc(S(C)(=O)=O)cc4F)oc3c2)CC1` had a melting point of 166 to 169 °C. Compound `O=C(O)CCCc1cnoc1-c1ccccc1` registered a melting point of 67 to 68 °C. With `Cc1nc(N)nc(N[C@@H]2CCc3ccccc32)n1`, the melting point fell in the range of 94 to 96 °C. In the case of `O=C1NCCc2[nH]c3ccc(F)cc3c21`, the melting point fell in the range of 242 to 245 °C. Compound `CC(C)c1nn(C(=O)NC2CCCC2)c(=O)n1N` showed a melting point of 109 °C.

Compound `N#CC1(c2ccc(Cl)c(Cl)c2)CC(Cl)=C(Cl)N1CCO` (stereo not drawn) showed a melting point of 143 to 145 °C. The result for `CS(=O)(=O)OC1CCc2ccccc2C1` (stereo not drawn) reads 60 to 62 °C.

`CC(C)(C)c1ccc2c(c1)OC(C(F)(F)F)C(C(=O)O)=C2` (stereo not drawn): the melting point is 166 to 167 °C. With `Cc1[nH]c(-c2ccccc2)nc1C=O`, the melting point was in the range of 102 to 115 °C. In turn, `CN(C)c1cccc2c(S(=O)(=O)N3CCC(NC(=O)Nc4ccc(OC(F)(F)F)cc4)CC3)cccc12` had a melting point of 102 to 107 °C. The compound `CCCCc1oc2ccccc2c1C(=O)NCc1ccc2c(-c3ccc(Cl)cc3)c(O)ccc2c1` returned a melting point of 122 to 124 °C.

In turn, `O=c1[nH]c2c(n1-c1ccccc1)CCCC2` came in with a melting point of 220 °C. The compound `O=C1N(Cc2ccccc2)c2cc(Cl)ccc2N=C2CCCC12Cc1ccccc1` (stereo not drawn) returned a melting point of 139 to 141 °C. Consider `Cc1cc2c(cc1C)N(C)c1cscc1C(=O)N2`, for which the melting point lay within 260 to 262 °C. The result for `CC1(c2ccc(O)c([N+](=O)[O-])c2)C(=O)Nc2cc(Cl)cc(Cl)c2C1=O` (stereo not drawn) reads 239 to 240 °C; that for `Cc1cccc(NC(=O)NCC(=O)N(CC(=O)N2CCC(C)(C)CC2)c2ccccc2)c1`, 205 °C; that for `O=CCOc1ccc(CCC(=O)O)cc1`, 95 to 100 °C. Compound `CCOC(=O)CC1(c2ccccc2)CCN(C(c2ccccc2)(c2ccccc2)c2ccccc2)CC1` returned a melting point of 120 °C. As for `COC(=O)[C@H](Cc1c(Br)n(C(=O)OC(C)(C)C)c2cc(Br)c(OC)c(Br)c12)NC(C)=O`, the melting point was 126 to 128 °C. Compound `CSc1sc(S(C)(=O)=O)cc1C#N` came in with a melting point of 126 to 128 °C. Compound `CC(Cn1cc[nH]c1=NC#N)c1ccc(OC(F)F)c(OC2CCOC2)c1` (stereo not drawn) had a melting point of 67.8 °C. For `O=c1c(OCC2CC2)cn(-c2cccc(C(F)(F)F)c2)nc1-c1ccnn1-c1ccccc1`, the melting point is 72 to 78 °C. With `Cc1ccc(-c2ccnc3c(C(=O)c4cccs4)cnn23)cc1NC(=O)OC(C)C`, the melting point fell in the range of 198 to 200 °C. `O=C(Cc1noc2ccccc12)N[C@H]1CC[C@H](CCN2CCN(c3nccc4c3OCC4)CC2)CC1` came in with a melting point of 211 °C. With `CCCCCCNC(=S)NC(=O)c1ccc(C#N)cc1`, the melting point lay in the range of 95 to 96 °C. Compound `COC(=O)C(C#N)=Cc1cc(-n2c(=O)cc(C(F)(F)F)n(C)c2=O)ccc1Cl` yielded a melting point of 187 to 188 °C. Regarding `O=C(O)[C@H](Cc1cccc(C(F)(F)F)c1)[C@@H](O)c1ccc(F)cc1` (racemic), the melting point fell in the range of 116 to 118 °C. `Cc1sc2c(Cl)c(Cl)c(OCC(=O)O)cc2c1C` had a melting point of 218 to 219 °C. The value for `CC(C)(C)c1cc(C2N(c3ccc(Cl)cc3)CCN2c2ccc(Cl)cc2)cc(C(C)(C)C)c1O` was 220 to 222 °C; that for `CC1(C)Oc2ccc([N+](=O)[O-])cc2C2OC21` (stereo not drawn) was 91 to 93 °C; that for `O=C(O)CCCc1cc2nc(Cl)ccc2n1S(=O)(=O)c1cccc(-c2cncs2)c1` was 157 to 160 °C.

In the case of `C=CCOC(=O)c1c(C)nc2c(cnn2CCC#CC)c1N`, the melting point lay in the range of 114 to 115 °C. For `CC(=NOCCOc1ccc(CC2SC(=O)NC2=O)cc1)c1ccc(OCc2ccccc2)nc1` (stereo not drawn), the melting point is 160 to 161 °C. The result for `CCOC(=O)c1cn(CCF)c2nc(N3CCC(NC(C)=O)C3)c(F)cc2c1=O` (stereo not drawn) reads 269 to 270 °C; that for `CC1Cc2cc(C(O)C(C)N3CCC(n4c(=O)[nH]c5ccccc54)CC3)ccc2S1` (stereo not drawn), 220 to 222 °C. Take `CCc1cccc(CC)c1N(CCCC(=O)O)C(=O)CCN(C(C)=O)c1c(C)cccc1C`: the melting point is 110 to 111 °C. `CCCC1CC(O)N(C(C)=O)C1(C(=O)OCC)C(=O)OCC` (stereo not drawn) registered a melting point of 105 to 106 °C.

Compound `Cc1ccc([N+](=O)[O-])c2[nH]ccc(=O)c12` gave a melting point of 219 to 225 °C. Turning to `CC(C)(OC(=O)Cc1cccc(F)c1)C(=O)c1ccc(S(C)(=O)=O)cc1`, the melting point came out at 173 °C.

For the origin of these results see a melting point compilation (Tetko et al.; mined from patent text by program, amines drawn as free bases though some values may be those of a salt).
